For two compounds, IC50 results are on record in US12528811B2, “Substituted cyclopenta[2,1-b:5,1-b’]dipyrroles as Janus kinase (JAK) inhibitors” (UNIVERSITÄT BERN, priority 2019, dated 2026).

Holding throughout (assay type): biochemical
For one experiment, the target named is JAK1 (Homo sapiens, UniProt P23458). Description: JAK1 enzymatic kinase inhibition assay. The note with it: read-out: Kinase inhibitory activities given in IC50 (nM), JAK1.
The next experiment has as its target JAK2 (Homo sapiens, UniProt O60674). Description: JAK2 enzymatic kinase inhibition assay. To be noted: read-out: Kinase inhibitory activities given in IC50 (nM), JAK2.
A further experiment concerns the target T1, JAK3 (Homo sapiens, UniProt P52333).
T1 sequence (P52333 1-1124): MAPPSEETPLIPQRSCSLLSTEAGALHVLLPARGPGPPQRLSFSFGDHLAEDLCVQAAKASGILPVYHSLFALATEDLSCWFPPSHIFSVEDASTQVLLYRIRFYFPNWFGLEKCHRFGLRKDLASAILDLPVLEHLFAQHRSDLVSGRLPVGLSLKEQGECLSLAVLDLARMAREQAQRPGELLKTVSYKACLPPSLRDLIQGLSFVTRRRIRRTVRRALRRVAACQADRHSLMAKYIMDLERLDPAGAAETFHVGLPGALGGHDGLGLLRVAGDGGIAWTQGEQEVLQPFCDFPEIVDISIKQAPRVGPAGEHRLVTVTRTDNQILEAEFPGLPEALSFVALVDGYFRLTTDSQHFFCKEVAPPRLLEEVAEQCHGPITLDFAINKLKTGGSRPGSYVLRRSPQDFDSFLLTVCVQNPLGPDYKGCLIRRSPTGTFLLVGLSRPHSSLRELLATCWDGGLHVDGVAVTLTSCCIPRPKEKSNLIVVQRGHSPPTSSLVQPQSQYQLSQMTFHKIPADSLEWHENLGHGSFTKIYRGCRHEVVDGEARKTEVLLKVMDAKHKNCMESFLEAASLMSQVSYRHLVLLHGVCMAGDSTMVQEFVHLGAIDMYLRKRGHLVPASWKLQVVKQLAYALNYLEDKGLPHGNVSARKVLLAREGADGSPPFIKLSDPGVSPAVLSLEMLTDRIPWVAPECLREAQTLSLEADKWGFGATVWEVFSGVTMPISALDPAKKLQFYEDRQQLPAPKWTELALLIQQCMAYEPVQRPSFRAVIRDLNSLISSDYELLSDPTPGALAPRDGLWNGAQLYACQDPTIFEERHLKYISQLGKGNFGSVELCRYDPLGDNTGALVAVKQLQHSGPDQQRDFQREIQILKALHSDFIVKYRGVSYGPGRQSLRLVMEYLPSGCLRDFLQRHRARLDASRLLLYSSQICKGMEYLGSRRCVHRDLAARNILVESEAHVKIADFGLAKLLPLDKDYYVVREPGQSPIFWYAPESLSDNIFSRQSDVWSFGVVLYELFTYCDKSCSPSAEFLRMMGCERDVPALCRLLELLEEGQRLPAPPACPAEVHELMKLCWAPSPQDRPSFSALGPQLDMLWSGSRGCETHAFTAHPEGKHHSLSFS
Description: JAK3 enzymatic kinase inhibition assay. To be noted: read-out: Kinase inhibitory activities given in IC50 (nM), JAK3.

The target of a further experiment is TYK2 (Homo sapiens, UniProt P29597). Kind of experiment: TYK2 enzymatic kinase inhibition assay. The note with it: read-out: Kinase inhibitory activities given in IC50 (nM), TYK2.
Sequence of TYK2 (P29597 whole entry): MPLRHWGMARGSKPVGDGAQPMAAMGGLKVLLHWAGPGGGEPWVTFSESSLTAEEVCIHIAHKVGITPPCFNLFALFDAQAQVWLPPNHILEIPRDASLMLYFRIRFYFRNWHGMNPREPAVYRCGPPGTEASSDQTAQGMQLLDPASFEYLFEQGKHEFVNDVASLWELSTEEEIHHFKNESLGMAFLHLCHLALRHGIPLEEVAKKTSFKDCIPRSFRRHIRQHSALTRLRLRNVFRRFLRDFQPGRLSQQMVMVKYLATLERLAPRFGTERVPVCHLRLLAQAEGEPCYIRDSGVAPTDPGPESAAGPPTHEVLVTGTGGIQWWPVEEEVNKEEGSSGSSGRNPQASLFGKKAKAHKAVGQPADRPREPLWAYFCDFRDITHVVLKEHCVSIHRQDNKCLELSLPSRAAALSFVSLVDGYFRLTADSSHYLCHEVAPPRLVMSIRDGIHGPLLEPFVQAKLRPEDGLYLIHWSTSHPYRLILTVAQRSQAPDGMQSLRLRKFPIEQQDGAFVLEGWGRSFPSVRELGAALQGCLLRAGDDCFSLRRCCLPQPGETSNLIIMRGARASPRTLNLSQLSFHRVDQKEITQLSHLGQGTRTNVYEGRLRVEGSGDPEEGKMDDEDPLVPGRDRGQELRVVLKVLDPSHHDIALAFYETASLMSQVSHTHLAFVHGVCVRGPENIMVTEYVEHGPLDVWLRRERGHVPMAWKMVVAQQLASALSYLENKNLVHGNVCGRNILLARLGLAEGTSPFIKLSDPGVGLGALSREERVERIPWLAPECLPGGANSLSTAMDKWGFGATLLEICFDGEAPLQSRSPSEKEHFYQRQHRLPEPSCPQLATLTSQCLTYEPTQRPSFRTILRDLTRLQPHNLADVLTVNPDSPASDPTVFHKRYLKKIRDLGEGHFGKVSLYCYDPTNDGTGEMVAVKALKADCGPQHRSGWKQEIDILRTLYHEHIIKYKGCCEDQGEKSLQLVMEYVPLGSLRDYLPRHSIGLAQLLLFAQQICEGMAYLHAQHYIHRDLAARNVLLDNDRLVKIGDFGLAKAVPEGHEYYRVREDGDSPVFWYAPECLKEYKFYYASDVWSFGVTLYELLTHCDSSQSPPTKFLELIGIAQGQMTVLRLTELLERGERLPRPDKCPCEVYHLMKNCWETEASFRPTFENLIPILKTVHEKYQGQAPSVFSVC

Sequence of JAK2 (O60674 whole entry): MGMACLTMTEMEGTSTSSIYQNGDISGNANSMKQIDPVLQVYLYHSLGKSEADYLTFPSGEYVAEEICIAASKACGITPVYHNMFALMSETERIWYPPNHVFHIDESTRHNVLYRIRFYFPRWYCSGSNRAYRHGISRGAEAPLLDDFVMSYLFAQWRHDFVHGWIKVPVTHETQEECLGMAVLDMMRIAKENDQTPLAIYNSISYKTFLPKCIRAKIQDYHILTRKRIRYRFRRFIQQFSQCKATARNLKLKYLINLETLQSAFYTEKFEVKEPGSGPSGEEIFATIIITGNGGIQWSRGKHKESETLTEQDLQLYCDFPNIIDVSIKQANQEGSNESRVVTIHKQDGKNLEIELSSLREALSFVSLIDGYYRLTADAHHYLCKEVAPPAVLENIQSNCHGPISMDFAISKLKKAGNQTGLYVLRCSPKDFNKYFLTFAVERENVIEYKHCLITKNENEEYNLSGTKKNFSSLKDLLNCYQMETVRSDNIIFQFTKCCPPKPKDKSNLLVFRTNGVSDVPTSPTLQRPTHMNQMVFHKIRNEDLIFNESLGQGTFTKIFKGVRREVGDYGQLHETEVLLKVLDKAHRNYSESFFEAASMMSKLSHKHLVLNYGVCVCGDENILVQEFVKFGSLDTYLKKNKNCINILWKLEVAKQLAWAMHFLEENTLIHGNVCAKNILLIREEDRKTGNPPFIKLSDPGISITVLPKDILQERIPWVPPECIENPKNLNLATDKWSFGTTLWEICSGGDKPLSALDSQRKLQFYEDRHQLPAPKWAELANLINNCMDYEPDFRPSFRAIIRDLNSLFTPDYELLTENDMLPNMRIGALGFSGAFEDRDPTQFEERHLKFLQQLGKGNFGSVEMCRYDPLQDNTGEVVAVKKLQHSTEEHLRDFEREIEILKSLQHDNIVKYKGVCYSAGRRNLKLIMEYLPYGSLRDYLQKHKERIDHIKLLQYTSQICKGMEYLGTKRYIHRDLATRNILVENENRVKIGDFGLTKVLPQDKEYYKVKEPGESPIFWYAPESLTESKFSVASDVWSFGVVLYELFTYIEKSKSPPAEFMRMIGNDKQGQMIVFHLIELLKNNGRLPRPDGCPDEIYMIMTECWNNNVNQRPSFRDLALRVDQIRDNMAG
Sequence of JAK1 (P23458 whole entry): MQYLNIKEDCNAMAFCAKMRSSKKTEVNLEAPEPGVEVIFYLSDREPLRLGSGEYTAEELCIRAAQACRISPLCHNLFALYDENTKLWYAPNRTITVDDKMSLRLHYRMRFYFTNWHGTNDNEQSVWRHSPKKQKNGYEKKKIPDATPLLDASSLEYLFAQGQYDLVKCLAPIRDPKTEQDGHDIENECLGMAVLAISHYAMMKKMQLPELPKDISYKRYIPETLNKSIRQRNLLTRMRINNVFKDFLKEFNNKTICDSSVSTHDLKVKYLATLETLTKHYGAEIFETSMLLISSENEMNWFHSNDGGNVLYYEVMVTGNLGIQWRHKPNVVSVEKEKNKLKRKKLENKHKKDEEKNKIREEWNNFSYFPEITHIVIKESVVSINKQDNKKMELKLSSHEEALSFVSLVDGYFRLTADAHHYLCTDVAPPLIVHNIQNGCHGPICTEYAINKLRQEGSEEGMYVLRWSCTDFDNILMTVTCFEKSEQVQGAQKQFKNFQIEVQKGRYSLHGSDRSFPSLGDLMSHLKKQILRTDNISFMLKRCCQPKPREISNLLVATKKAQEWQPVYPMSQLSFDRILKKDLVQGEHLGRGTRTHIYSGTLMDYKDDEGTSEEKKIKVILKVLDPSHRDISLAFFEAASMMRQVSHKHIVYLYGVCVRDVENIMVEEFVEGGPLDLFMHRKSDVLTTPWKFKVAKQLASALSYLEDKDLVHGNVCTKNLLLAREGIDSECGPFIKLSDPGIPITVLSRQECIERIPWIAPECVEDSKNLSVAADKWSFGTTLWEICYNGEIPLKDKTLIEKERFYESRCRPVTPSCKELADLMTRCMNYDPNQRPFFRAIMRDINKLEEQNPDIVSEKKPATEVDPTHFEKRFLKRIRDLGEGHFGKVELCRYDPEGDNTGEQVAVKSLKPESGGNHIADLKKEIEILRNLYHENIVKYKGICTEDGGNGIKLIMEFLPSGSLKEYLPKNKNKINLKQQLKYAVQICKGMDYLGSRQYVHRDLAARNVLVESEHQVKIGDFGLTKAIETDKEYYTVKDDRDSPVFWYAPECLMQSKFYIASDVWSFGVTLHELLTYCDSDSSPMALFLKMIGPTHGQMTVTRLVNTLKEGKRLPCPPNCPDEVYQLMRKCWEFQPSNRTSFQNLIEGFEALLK

The term IC50 denotes the midpoint of a concentration-inhibition curve. Turning to `N#CCC(=O)N1CCC23CCN(c4ncnc5[nH]ccc45)C2CCC13` (centres unmarked) [KMC420, 3-(6-(7H-pyrrolo[2,3-d]pyrimidin-4-yl)octahydrocyclopenta[2,1-b:5,1-b′]dipyrrol-3(3aH)-yl)-3-oxopropanenitrile], the concentration for half-maximal inhibition (IC50) on JAK1 was determined as 1 nM; on JAK2, 13 nM; on JAK3 it was 29 nM; at TYK2, 26 nM.

With `C=CC(=O)N1CCC23CCN(c4ncnc5[nH]ccc45)C2CCC13` (centres unmarked) [KMC423, 1-(6-(7H-pyrrolo[2,3-d]pyrimidin-4-yl)octahydrocyclopenta[2,1-b:5,1-b′]dipyrrol-3(3aH)-yl)prop-2-en-1-one], the 50% inhibitory concentration (IC50) on JAK1 amounted to 30 nM; at JAK2, 53 nM; at JAK3, 9 nM; on TYK2, 183 nM.
